Starred links: 1 amine or outer side, 2 acyl side, 3 side chain; linkers in the order of their positions; H or OH if unused. Positions of bridges follow the written chain, without caps; N, C: chain ends. Residues, ends and D or L forms follow the SMILES beside them. *: point of attachment. C20 diacid = O=C(O)CCCCCCCCCCCCCCCCCCC(=O)*; γGlu = O=C(O)[C@H](CCC(=O)[*:2])N[*:1]
What was measured:
[1] = system: ad libitum fed rat; assay: Assay (I) efficacy testing on appetite (food intake) using an ad libitum fed rat model; assay type: in vivo, Sprague Dawley (SD) rats
In short: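 Ad libitum fed Sprague Dawley rats, 200-250 g, singly housed on reversed light cycle, got one ip, po or sc dose of 0.01-3 mg/kg just before lights off; groups of 5-8 with vehicle control. Food intake recorded hourly for 7 h, then at 24 h and sometimes 48 h; Grubbs outliers excluded.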

[2] = Assay (III) ThT fibrillation assay for physical stability; assay type: physicochemical; details: for ThT pH 4.0 lag time: pH 4.0, ThT fibrillation assay
In short: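 Freshly prepared, pH-adjusted formulations with 1 μM ThT incubated at 37 °C under 960 rpm orbital shaking (1 mm), fluorescence (ex 444, em 485 nm) read every 20 min. […] Peptide content before and after measured by reverse-phase HPLC against pramlintide standard.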

| Compound | Food intake reduction 0-24 h 3 nmol/kg (%) ([1]; 0-24 h) | Food intake reduction 24-48 h 3 nmol/kg (%) ([1]; 24-48 h) | ThT pH 4.0 lag time (physical stability in fibrillogenesis assay) [2] [h] | ThT pH 4.0 lag time [2] [h] | Food intake reduction 0-24 h 30 nmol/kg (%) ([1]; 30 nmol/kg, 0-24 h) | Food intake reduction 24-48 h 30 nmol/kg (%) ([1]; 30 nmol/kg, 24-48 h) |
| --- | --- | --- | --- | --- | --- | --- |
| CC[C@H](C)[C@H](NC(=O)[C@@H]1CCCN1C(=O)CNC(=O)[C@H](Cc1ccccc1)NC(=O)[C@H](CC(N)=O)NC(=O)[C@H](CC(N)=O)NC(=O)[C@H](CO)NC(=O)[C@H](CO)NC(=O)[C@H](Cc1c[nH]cn1)NC(=O)[C@H](Cc1c[nH]cn1)NC(=O)[C@H](CC(C)C)NC(=O)[C@H](Cc1ccccc1)NC(=O)[C@H](CCC(=O)O)NC(=O)[C@H](C)NC(=O)[C@H](CC(C)C)NC(=O)[C@H](CCCNC(=N)N)NC(=O)[C@H](CCC(N)=O)NC(=O)[C@@H](NC(=O)[C@H](C)NC(=O)[C@@H]1CSSC[C@H](NC(=O)[C@H](CCCNC(=N)N)NC(=O)CC[C@H](NC(=O)CCCCCCCCCCCCCCCCCCC(=O)O)C(=O)O)C(=O)N[C@@H](CC(N)=O)C(=O)N[C@@H]([C@@H](C)O)C(=O)N[C@@H](C)C(=O)N[C@@H]([C@@H](C)O)C(=O)N1)[C@@H](C)O)C(=O)N[C@@H](CC(C)C)C(=O)N1CCC[C@H]1C(=O)N1CCC[C@H]1C(=O)N[C@H](C(=O)N[C@@H](CC(N)=O)C(=O)N[C@H](C(=O)NCC(=O)N[C@@H](CO)C(=O)N[C@@H](CC(N)=O)C(=O)N[C@H](C(=O)N1CCC[C@H]1C(N)=O)[C@@H](C)O)C(C)C)[C@@H](C)O [Example 96, N-alpha-[(S)-4-Carboxy-4-(19-carboxynonadecanoylamino)butyryl]-[Arg1,Glu14,His17,Pro37]-pramlintide] ({C20 diacid-γGlu}-RCNTATCATQRLAEFLHHSSNNFGPILPPTNVGSNTP-NH2; disulfide 2-7) | 69 | 89 | >45 | >45 | – | – |
| CC[C@H](C)[C@H](NC(=O)[C@@H]1CCCN1C(=O)CNC(=O)[C@H](Cc1ccccc1)NC(=O)[C@H](CC(N)=O)NC(=O)[C@H](CC(N)=O)NC(=O)[C@H](CO)NC(=O)[C@H](CO)NC(=O)[C@H](Cc1c[nH]cn1)NC(=O)[C@H](Cc1c[nH]cn1)NC(=O)[C@H](CC(C)C)NC(=O)[C@H](Cc1ccccc1)NC(=O)[C@H](CCC(=O)O)NC(=O)[C@H](C)NC(=O)[C@H](CC(C)C)NC(=O)[C@H](CCCNC(=N)N)NC(=O)[C@H](CCC(N)=O)NC(=O)[C@@H](NC(=O)[C@H](C)NC(=O)[C@@H]1CSSC[C@H](NC(=O)[C@H](CCCNC(=N)N)NC(=O)CNC(=O)CC[C@H](NC(=O)CCCCCCCCCCCCCCCCCCC(=O)O)C(=O)O)C(=O)N[C@@H](CC(N)=O)C(=O)N[C@@H]([C@@H](C)O)C(=O)N[C@@H](C)C(=O)N[C@@H]([C@@H](C)O)C(=O)N1)[C@@H](C)O)C(=O)N[C@@H](CC(C)C)C(=O)N1CCC[C@H]1C(=O)N1CCC[C@H]1C(=O)N[C@H](C(=O)N[C@@H](CC(N)=O)C(=O)N[C@H](C(=O)NCC(=O)N[C@@H](CO)C(=O)N[C@@H](CC(N)=O)C(=O)N[C@H](C(=O)N1CCC[C@H]1C(N)=O)[C@@H](C)O)C(C)C)[C@@H](C)O [Example 101, N-alpha-[(S)-4-Carboxy-4-(19-carboxynonadecanoylamino)butyryl]-Gly-[Arg1,Glu14,His17,Pro37]-pramlintide] ({C20 diacid-γGlu}-GRCNTATCATQRLAEFLHHSSNNFGPILPPTNVGSNTP-NH2; disulfide 3-8) | 70 | 90 | >45 | >45 | – | – |
| CC[C@H](C)[C@H](NC(=O)[C@@H]1CCCN1C(=O)CNC(=O)[C@H](Cc1ccccc1)NC(=O)[C@H](CC(N)=O)NC(=O)[C@H](CCC(N)=O)NC(=O)[C@H](CO)NC(=O)[C@H](CO)NC(=O)[C@H](Cc1c[nH]cn1)NC(=O)[C@H](Cc1c[nH]cn1)NC(=O)[C@H](CC(C)C)NC(=O)[C@H](Cc1ccccc1)NC(=O)[C@H](CCC(=O)O)NC(=O)[C@H](C)NC(=O)[C@H](CC(C)C)NC(=O)[C@H](CCCNC(=N)N)NC(=O)[C@H](CCC(N)=O)NC(=O)[C@@H](NC(=O)[C@H](C)NC(=O)[C@@H]1CSSC[C@H](NC(=O)[C@H](CCCCN)NC(=O)CC[C@H](NC(=O)CCCCCCCCCCCCCCCCCCC(=O)O)C(=O)O)C(=O)N[C@@H](CC(N)=O)C(=O)N[C@@H]([C@@H](C)O)C(=O)N[C@@H](C)C(=O)N[C@@H]([C@@H](C)O)C(=O)N1)[C@@H](C)O)C(=O)N[C@@H](CC(C)C)C(=O)N1CCC[C@H]1C(=O)N1CCC[C@H]1C(=O)N[C@H](C(=O)N[C@@H](CC(N)=O)C(=O)N[C@H](C(=O)NCC(=O)N[C@@H](CO)C(=O)N[C@@H](Cc1c[nH]cn1)C(=O)N[C@H](C(=O)N[C@@H](Cc1ccc(O)cc1)C(N)=O)[C@@H](C)O)C(C)C)[C@@H](C)O [Example 117, N-alpha-[(S)-4-Carboxy-4-(19-carboxynonadecanoylamino)butyryl]-[Glu14,His17,Gln21,His35)-pramlintide] ({C20 diacid-γGlu}-KCNTATCATQRLAEFLHHSSQNFGPILPPTNVGSHTY-NH2; disulfide 2-7) | 50 | 35 | >45 | >45 | – | – |
| CC[C@H](C)[C@H](NC(=O)[C@@H]1CCCN1C(=O)CNC(=O)[C@H](Cc1ccccc1)NC(=O)[C@H](CC(N)=O)NC(=O)[C@H](CC(N)=O)NC(=O)[C@H](CO)NC(=O)[C@H](CO)NC(=O)[C@H](Cc1c[nH]cn1)NC(=O)[C@H](Cc1c[nH]cn1)NC(=O)[C@H](CC(C)C)NC(=O)[C@H](Cc1ccccc1)NC(=O)[C@H](CCC(=O)O)NC(=O)[C@H](C)NC(=O)[C@H](CC(C)C)NC(=O)[C@H](CCCNC(=N)N)NC(=O)[C@H](CCC(N)=O)NC(=O)[C@@H](NC(=O)[C@H](C)NC(=O)[C@@H]1CSSC[C@H](NC(=O)[C@H](Cc2c[nH]cn2)NC(=O)[C@H](Cc2c[nH]cn2)NC(=O)[C@H](Cc2c[nH]cn2)NC(=O)CC[C@H](NC(=O)CCCCCCCCCCCCCCCCCCC(=O)O)C(=O)O)C(=O)N[C@@H](CCCNC(=N)N)C(=O)N[C@@H]([C@@H](C)O)C(=O)N[C@@H](C)C(=O)N[C@@H]([C@@H](C)O)C(=O)N1)[C@@H](C)O)C(=O)N[C@@H](CC(C)C)C(=O)N1CCC[C@H]1C(=O)N1CCC[C@H]1C(=O)N[C@H](C(=O)N[C@@H](CC(N)=O)C(=O)N[C@H](C(=O)NCC(=O)N[C@@H](CO)C(=O)N[C@@H](CC(N)=O)C(=O)N[C@H](C(=O)N[C@@H](Cc1ccc(O)cc1)C(N)=O)[C@@H](C)O)C(C)C)[C@@H](C)O [Example 22, N-alpha-[(S)-4-Carboxy-4-(19-carboxynonadecanoylamino)butyryl]-His-His-[His1,Arg3,Glu14,His17]-pramlintide] ({C20 diacid-γGlu}-HHHCRTATCATQRLAEFLHHSSNNFGPILPPTNVGSNTY-NH2; disulfide 4-9 (inferred)) | 26 | 5 | – | – | – | – |
| CC[C@H](C)[C@H](NC(=O)[C@@H]1CCCN1C(=O)CNC(=O)[C@H](Cc1ccccc1)NC(=O)[C@H](CC(N)=O)NC(=O)[C@H](CC(N)=O)NC(=O)[C@H](CO)NC(=O)[C@H](CO)NC(=O)[C@H](CCCNC(=N)N)NC(=O)[C@H](Cc1c[nH]cn1)NC(=O)[C@H](CC(C)C)NC(=O)[C@H](Cc1ccccc1)NC(=O)[C@H](CCC(=O)O)NC(=O)[C@H](C)NC(=O)[C@H](CC(C)C)NC(=O)[C@H](CCCNC(=N)N)NC(=O)[C@H](CCC(N)=O)NC(=O)[C@@H](NC(=O)[C@H](C)NC(=O)[C@@H]1CSSC[C@H](NC(=O)[C@H](Cc2c[nH]cn2)NC(=O)CC[C@H](NC(=O)CCCCCCCCCCCCCCCCCCC(=O)O)C(=O)O)C(=O)N[C@@H](CC(N)=O)C(=O)N[C@@H]([C@@H](C)O)C(=O)N[C@@H](C)C(=O)N[C@@H]([C@@H](C)O)C(=O)N1)[C@@H](C)O)C(=O)N[C@@H](CC(C)C)C(=O)N1CCC[C@H]1C(=O)N1CCC[C@H]1C(=O)N[C@H](C(=O)N[C@@H](CC(N)=O)C(=O)N[C@H](C(=O)NCC(=O)N[C@@H](CO)C(=O)N[C@@H](CC(N)=O)C(=O)N[C@H](C(=O)N[C@@H](Cc1ccc(O)cc1)C(N)=O)[C@@H](C)O)C(C)C)[C@@H](C)O [Example 1, N-alpha-[(S)-4-Carboxy-4-(19-carboxynonadecanoylamino)butyryl]-[His1,Glu14,His17,Arg18]-pramlintide] ({C20 diacid-γGlu}-HCNTATCATQRLAEFLHRSSNNFGPILPPTNVGSNTY-NH2; disulfide 2-7 (inferred); C-terminus assumed) | 50 | 45 | – | – | 93 | 92 |

Reference: patent US8741836B2, “Polypeptides” (Novo Nordisk A/S, priority 2011, dated 2014)
